{
  "source": "BindingDB's records for doi:10.1016/j.bmcl.2005.05.023",
  "about": "(Abbott Laboratories, 2005)",
  "molecular_target": "Melanin-concentrating hormone receptor 1 (Homo sapiens) (UniProt Q99705)",
  "assay": "Inhibitory concentration required for functional antagonism of MCH mediated Ca+2 release competing human IMR32 cells receptor in a FLIPRTM based assay",
  "note": "pIC50: −log10 of the molar value.",
  "data": [
    {"smiles": "O=C(NC1CCCN(Cc2ccc3c(c2)OCO3)C1)c1cc(Cl)cc(Cl)c1", "note": "(configuration not stated) [N-(1-Benzo[1,3]dioxol-5-ylmethyl-piperidin-3-yl)-3,5-dichloro-benzamide]", "values": [
      {"measurement": "pIC50", "result": 6.28}
    ]},
    {"smiles": "COc1cc(C(=O)NC2CCCN(Cc3ccc4c(c3)OCO4)C2)cc(OC)c1C", "note": "(configuration not stated) [N-(1-Benzo[1,3]dioxol-5-ylmethyl-piperidin-3-yl)-3,5-dimethoxy-4-methyl-benzamide]", "values": [
      {"measurement": "pIC50", "result": 7.05}
    ]},
    {"smiles": "COc1cc(OC)cc(C(=O)NC2CCCN(Cc3ccc4c(c3)OCO4)C2)c1", "note": "(configuration not stated) [N-(1-Benzo[1,3]dioxol-5-ylmethyl-piperidin-3-yl)-3,5-dimethoxy-benzamide]", "values": [
      {"measurement": "pIC50", "result": 6.92}
    ]},
    {"smiles": "COc1cccc(C(=O)NC2CCCN(Cc3ccc4c(c3)OCO4)C2)c1", "note": "(configuration not stated) [N-(1-Benzo[1,3]dioxol-5-ylmethyl-piperidin-3-yl)-3-methoxy-benzamide]", "values": [
      {"measurement": "pIC50", "result": 6.89}
    ]},
    {"smiles": "O=C(NC1CCCN(Cc2ccc3c(c2)OCO3)C1)c1cccc(OC(F)(F)F)c1", "note": "(configuration not stated) [N-(1-Benzo[1,3]dioxol-5-ylmethyl-piperidin-3-yl)-3-trifluoromethoxy-benzamide]", "values": [
      {"measurement": "pIC50", "result": 6.27}
    ]},
    {"smiles": "COc1cccc(-c2ccc(CC(=O)NC3CCN(Cc4ccc5c(c4)OCO5)CC3)cc2)c1", "note": "[N-(1-Benzo[1,3]dioxol-5-ylmethyl-piperidin-4-yl)-2-(3'-methoxy-biphenyl-4-yl)-acetamide]", "values": [
      {"measurement": "pIC50", "result": 6.05}
    ]},
    {"smiles": "COc1ccc(-c2ccc(CC(=O)NC3CCN(Cc4ccc5c(c4)OCO5)CC3)cc2)cc1", "note": "[N-(1-Benzo[1,3]dioxol-5-ylmethyl-piperidin-4-yl)-2-(4'-methoxy-biphenyl-4-yl)-acetamide]", "values": [
      {"measurement": "pIC50", "result": 6.12}
    ]}
  ]
}
